By IC50 is commonly meant the midpoint of a concentration-inhibition curve.

These results are taken from patent US10640486B2, “Heteroarylcarboxamide derivatives as plasma kallikrein inhibitors” (Boehringer Ingelheim International GmbH, priority 2015, dated 2020).

human Plasma Kallikrein (KLKB1), sequence (P03952 391-638): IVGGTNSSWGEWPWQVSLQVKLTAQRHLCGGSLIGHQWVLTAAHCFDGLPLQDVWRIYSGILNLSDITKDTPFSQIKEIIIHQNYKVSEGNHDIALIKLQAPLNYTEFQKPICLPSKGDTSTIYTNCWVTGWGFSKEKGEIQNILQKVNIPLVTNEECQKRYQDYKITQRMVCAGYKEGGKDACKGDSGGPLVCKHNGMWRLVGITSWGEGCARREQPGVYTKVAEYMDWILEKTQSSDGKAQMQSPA
human Plasma Kallikrein (KLKB1), sequence (P03952 20-390 partner): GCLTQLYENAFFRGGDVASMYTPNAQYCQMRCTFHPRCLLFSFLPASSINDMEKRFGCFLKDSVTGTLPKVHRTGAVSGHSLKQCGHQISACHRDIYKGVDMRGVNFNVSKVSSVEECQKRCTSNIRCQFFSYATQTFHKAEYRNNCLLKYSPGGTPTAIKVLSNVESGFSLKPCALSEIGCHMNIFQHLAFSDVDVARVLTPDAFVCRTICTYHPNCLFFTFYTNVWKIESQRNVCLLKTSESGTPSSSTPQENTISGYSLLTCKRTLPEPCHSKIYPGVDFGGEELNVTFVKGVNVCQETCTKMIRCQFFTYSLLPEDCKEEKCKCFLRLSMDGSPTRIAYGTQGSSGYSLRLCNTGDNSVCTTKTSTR

This assay deals with human Plasma Kallikrein (KLKB1) (Homo sapiens (Human), UniProt P03952). Put plainly: Inhibition of KLKB1 endpoint assay. It counts as biochemical. The note with it: fluorogenic substrate H-Pro-Phe-Arg-AMC, 1 hr at Room Temperature, read-out: IC50 measurements for the inhibition of human Plasma Kallikrein (KLKB1). The procedure: The ability of compounds of Formula I to inhibit plasma kallikrein (KLKB1), Factor XIIa (FXIIa), Factor XIa (FXIa), Factor Xa (FXa), Factor IIa (alpha-thrombin; FIIa), plasmin, trypsin, tissue kallikrein 1 (KLK1), Factor VIIa (FVIIa), or FVIIa complexed with Tissue Factor, phospholipids and CaCl2 (FVIIa/TF/PL/CaCl2) was determined using the following biochemical assays in assay buffer (100 mM Tris, 150 mM NaCL, adjusted to a pH of 7.8 with HCl, and containing 0.1% (w/v) BSA and 0.05% (v/v) Tween20) in the presence of 1% (v/v) DMSO:
Evaluation of the Inhibition of KLKB1 Using an Endpoint Assay
Subsequently, PPACK II (Calbiochem) was added as a stop solution to achieve a final concentration of 1 μM and fluorescence was measured using an Envision Reader (PerkinElmer) with the wavelength excitation setting of 355 nm and the wavelength emission setting of 460 nm.
The IC50 values were obtained with the aid of the inhibition of KLKB1 endpoint assay described above.
As for `Nc1ccc2c(n1)CCC2NC(=O)c1cn(Cc2ccc(CN3CC4CCCN4C3=O)cc2)nn1` (stereo not drawn) [Example 61, 1-[4-(3-Oxo-tetrahydro-pyrrolo[1,2-c]imidazol-2-ylmethyl)-benzyl]-1H-[1,2,3]triazole-4-carboxylic acid (2-amino-6,7-dihydro-5H-[1]pyrindin-5-yl)-amide], the IC50 was determined as 340 nM.
The value for `Nc1ccc2c(n1)CCC2NC(=O)c1cn(Cc2ccc(CN3CC4CC4C3=O)cc2)nn1` (stereo not drawn) [Example 62, 1-[4-(2-Oxo-3-aza-bicyclo[3.1.0]hex-3-ylmethyl)-benzyl]-1H-[1,2,3]triazole-4-carboxylicacid (2-amino-6,7-dihydro-5H-[1]pyrindin-5-yl)-amide] was 410 nM; that for `Nc1ccc2c(n1)CCC2NC(=O)c1cn(Cc2ccc(N3CC4CCCN4C3=O)cc2)nn1` (stereo not drawn) [Example 63, 1-[4-(3-Oxo-tetrahydro-pyrrolo[1,2-c]imidazol-2-yl)-benzyl]-1H-[1,2,3]triazole-4-carboxylic acid (2-amino-6,7-dihydro-5H-[1]pyrindin-5-yl)-amide] was 3000 nM; that for `Nc1ccc2c(n1)CCC2NC(=O)c1cn(Cc2ccc(CN3CCC4(CC4)C3=O)cc2)nn1` (stereo not drawn) [Example 64, 1-[4-(4-Oxo-5-aza-spiro[2.4]hept-5-ylmethyl)-benzyl]-1H-[1,2,3]triazole-4-carboxylic acid (2-amino-6,7-dihydro-5H-[1]pyrindin-5-yl)-amide] was 580 nM.
The value for `Nc1ccc2c(n1)CCC2NC(=O)c1cn(Cc2ccc(N3CC4CC4C3=O)cc2)nn1` (stereo not drawn) [Example 65, 1-[4-(2-Oxo-3-aza-bicyclo[3.1.0]hex-3-yl)-benzyl]-1H-[1,2,3]triazole-4-carboxylic acid (2-amino-6,7-dihydro-5H-[1]pyrindin-5-yl)-amide] was 1100 nM; that for `Cc1cc(Cn2cc(C(=O)N[C@@H]3CCc4nc(N)ccc43)cn2)ccc1CN1CC2CC2C1=O` (stereo partly drawn) [Example 66, 1-[3-Methyl-4-(2-oxo-3-aza-bicyclo[3.1.0]hex-3-ylmethyl)-benzyl]-1H-pyrazole-4-carboxylic acid ((R)-2-amino-6,7-dihydro-5H-[1]pyrindin-5-yl)-amide] was 18 nM.
The value for `Cc1cc(CN2CC3CC3C2=O)ccc1Cn1cc(C(=O)N[C@@H]2CCc3nc(N)ccc32)cn1` (stereo partly drawn) [Example 69, 1-[2-Methyl-4-(2-oxo-3-aza-bicyclo[3.1.0]hex-3-ylmethyl)-benzyl]-1H-pyrazole-4-carboxylic acid ((R)-2-amino-6,7-dihydro-5H-[1]pyrindin-5-yl)-amide] was 55 nM; that for `Nc1ccc2c(n1)CCC2NC(=O)c1cn(Cc2cccc(N3CCN4CCCCC4C3=O)c2)nn1` (stereo not drawn) [Example 70, 1-[3-(1-Oxo-octahydro-pyrido[1,2-a]pyrazin-2-yl)-benzyl]-1H-[1,2,3]triazole-4-carboxylic acid (2-amino-6,7-dihydro-5H-[1]pyrindin-5-yl)-amide] was above 10000 nM.
Turning to `CC(c1ccc(N2CC3CC3C2)nc1)n1cc(C(=O)N[C@@H]2CCc3c2ccnc3N)cn1` (stereo partly drawn) [Example 71, 1-{1-[6-(3-Aza-bicyclo[3.1.0]hex-3-yl)-pyridin-3-yl]-ethyl}-1H-pyrazole-4-carboxylic acid ((R)-1-amino-6,7-dihydro-5H-[2]pyrindin-5-yl)amide], the IC50 came to 9 nM.
The same measure for `Nc1nccc2c1CC[C@H]2NC(=O)c1cnn(C2(c3ccc(N4CC5CC5C4)nc3)CC2)c1` (stereo partly drawn) [Example 74, 1-{1-[6-(3-Aza-bicyclo[3.1.0]hex-3-yl)-pyridin-3-yl]-cyclopropyl}-1H-pyrazole-4-carboxylic acid ((R)-1-amino-6,7-dihydro-5H-[2]pyrindin-5-yl)amide]: 41 nM.
The value for `Nc1nccc2c1CC[C@H]2NC(=O)c1cnn(Cc2ccc(N3CC4CC4C3)nc2)c1` (stereo partly drawn) [Example 75, 1-[6-(3-Aza-bicyclo[3.1.0]hex-3-yl)-pyridin-3-ylmethyl]-1H-pyrazole-4-carboxylic acid ((R)-1-amino-6,7-dihydro-5H-[2]pyrindin-5-yl)amide] was 1 nM; that for `Nc1ccc2c(n1)CC[C@H]2NC(=O)c1cnn(Cc2ccc(N3CC4CC4C3)nc2)c1` (stereo partly drawn) [Example 76] was 8 nM.
The value for `Nc1nccc2c1CC[C@H]2NC(=O)c1cn(Cc2ccc(N3CC4CC4C3)nc2)nc1C(F)(F)F` (stereo partly drawn) [Example 77] was 2 nM.
In the case of `Nc1ccc2c(n1)CC[C@H]2NC(=O)c1cn(Cc2ccc(N3CC4CC4C3)nc2)nc1C(F)(F)F` (stereo partly drawn) [Example 78], the IC50 was found to be 21 nM.
The same measure for `Nc1nccc2c1CC[C@H]2NC(=O)c1cnn(Cc2ccc(N3CC4CCC4C3)nc2)c1` (stereo partly drawn) [Example 79]: 8 nM; for `Nc1nccc2c1CC[C@H]2NC(=O)c1cnn(Cc2cnc(N3CC4CC4C3)nc2)c1` (stereo partly drawn) [Example 80]: 3 nM.
The same measure for `Nc1ccc2c(n1)CC[C@H]2NC(=O)c1cnn(Cc2cnc(N3CC4CC4C3)nc2)c1` (stereo partly drawn) [Example 81]: 19 nM.
The same measure for `Nc1nccc2c1CC[C@H]2NC(=O)c1cn(Cc2cnc(N3CC4CC4C3)nc2)nn1` (stereo partly drawn) [Example 82]: 7 nM; for `Nc1ccc2c(n1)CC[C@H]2NC(=O)c1cn(Cc2cnc(N3CC4CC4C3)nc2)nn1` (stereo partly drawn) [Example 83]: 73 nM.
Take `Nc1nccc2c1CC[C@H]2NC(=O)c1cnn(Cc2ccc(N3CC4C(C3)C4(F)F)nc2)c1` (stereo partly drawn) [Example 84]: the IC50 turned out to be 1 nM.
The same measure for `Nc1nccc2c1CC[C@H]2NC(=O)c1cnn(Cc2cnc(N3CC4CC4C3)cn2)c1` (stereo partly drawn) [Example 85]: 4 nM; for `Nc1ccc2c(n1)CC[C@H]2NC(=O)c1cnn(Cc2cnc(N3CC4CC4C3)cn2)c1` (stereo partly drawn) [Example 86]: 34 nM.
The same measure for `Cc1cc(N)nc2c1C(NC(=O)c1cn(Cc3ccc(N4CC5COCCN5C4=O)cc3)nn1)CC2` (stereo not drawn) [Example 87, 1-[4-(3-Oxo-tetrahydro-imidazo[5,1-c][1,4]oxazin-2-yl)-benzyl]-1H-[1,2,3]triazole-4-carboxylic acid (2-amino-4-methyl-6,7-dihydro-5H-[1]pyrindin-5-yl)-amide]: 3200 nM; for `Nc1nccc2c1CC[C@H]2NC(=O)c1cnn(Cc2ccc(N3CCC4(CC4)C3)nc2)c1` [Example 89]: 5 nM.
The value for `Nc1nccc2c1CC[C@H]2NC(=O)c1cnn(Cc2ccc(N3CC4(COC4)C3)nc2)c1` [Example 90] was 78 nM; that for `Nc1nccc2c1CC[C@H]2NC(=O)c1cnn(Cc2ccc(N3C[C@@H]4[C@@H](CO)[C@@H]4C3)nc2)c1` [Example 91] was 38 nM; that for `Nc1ccc2c(n1)CC[C@H]2NC(=O)c1cn(Cc2cnc(N3CC4CC4C3)nc2)nc1C(F)(F)F` (stereo partly drawn) [Example 92] was 23 nM.
